Series [1] can be described thus: WST-1 proliferation assay, HT-29. Type of series: cell-based. Conditions: human, HT-29 cells (colorectal adenocarcinoma), vs 0.1% DMSO control = 100%, mean ± standard deviation. As to the method:
(§1) A thorough analysis of antiproliferative activity was performed across various cell culture types representing different histotypes: leukemia (Jurkat, MOLT-4), lung adenocarcinoma (A549), colorectal adenocarcinoma (HT-29), pancreatic carcinoma (PANC-1), breast adenocarcinoma (MCF-7), osteosarcoma (SAOS-2), and one non-cancerous cell line (fetal lung fibroblasts MRC-5). The cell lines were exposed to the newly synthesized compounds at a concentration of 100 μM for 48 h in a single-dose treatment. Changes in cell proliferation compared to the vehicle 0.1% dimethyl sulfoxide (DMSO) control were determined using the WST-1 assay, which is based on mitochondrial dehydrogenase metabolic activities. […] The overall cytotoxic activity of each compound was expressed as growth percent (GP) – the mean of the proliferation of all cell lines treated with the same compound.
(§2) Selected human tumor and non-tumor cell lines Jurkat (acute T-cell leukemia), MOLT-4 (acute lymphoblastic leukemia), A549 (lung carcinoma), HT-29 (colorectal adenocarcinoma), PANC-1 (pancreas epithelioid carcinoma), MCF-7 (breast adenocarcinoma), SAOS-2 (osteosarcoma) and MRC-5 (normal lung fibroblasts) were purchased from either American Type Culture Collection (ATCC; VA, USA) or Sigma-Aldrich (St. Louis, MO, USA) and cultured according to the provider's culture method guidelines. All cell lines were maintained at 37 °C in a humidified 5% carbon dioxide and 95% air incubator. Cells in the maximum range of either 10 passages for the adherent cell lines (A549, HT-29, PANC-1, MCF-7, SAOS-2, and MRC-5), or 20 passages for suspension cell lines (Jurkat, MOLT-4,) and in an exponential growth phase were used for this study. Screening of the antiproliferative effect and growth percent calculation were conducted as follows: each cell line was seeded at previously established optimal density (1–50 × 10^3 cells per well) in a 96-well plate (TPP, Trasadingen, Switzerland) and cells were allowed to settle overnight. Cells were treated for 48 h with compounds at a final concentration of 100 μM. At the end of the cultivation period, the WST-1 proliferation assay (Roche, Basel, Switzerland) was performed according to the manufacturer's protocol. The absorbance was measured at 440 nm using a Tecan Spark multimode microplate reader (Tecan, Mannedorf, Switzerland). Each value is the mean of three independent experiments and represents the percentage of proliferation (100% cell proliferation for 0.1% DMSO mock-treated control cells). The GP value was calculated for each compound tested. GP represents the mean of the percentage proliferation decrease of all cell lines treated with the same compound.
(In general: Tetrazolium assays rely on reduction of a dye to a coloured formazan, in cell work by metabolically active cells.)

Series [2] can be described thus: WST-1 proliferation assay, MRC-5. Type of series: cell-based. The settings on record: human, MRC-5 cells (normal lung fibroblasts), vs 0.1% DMSO control = 100%, mean ± standard deviation. As to the method: as §1, §2
Series [3] is described as follows: Annexin V/PI flow cytometry viability of irradiated MOLT-4 cells. Type of series: cell-based, human. Conditions: human, MOLT-4 cells, not irradiated, no irradiation, 24 h, read-out: Viable (annexin V/PI negative) MOLT-4 cells, compound alone; for viability at 24 h, 200 µM: representative histogram Fig. 6A. As to the method: Consequently, we investigated whether the pre-application of these substances can augment the survival of MOLT-4 cells after irradiation exposure. The radioprotective investigation utilized a leukemia MOLT-4 cell model of hematopoietic origin with flow cytometric quantification of cell viability via annexin V/propidium iodide staining.
In the following step, at 24 h after irradiation, MOLT-4 cell viability and cell death were determined by flow cytometry using an Alexa Fluor® 488 annexin V/Dead Cell Apoptosis kit (Life Technologies, Grand Island, NY, USA) following the manufacturer's instructions. The Alexa Fluor®488 annexin V/Dead Cell Apoptosis kit employs the property of Alexa Fluor®488 conjugated to annexin V to bind to phosphatidylserine in the presence of Ca^2+; and the ability of propidium iodide to enter cells with damaged cell membranes and bind to DNA. For each sample, a minimum of 20 000 events were acquired using a CytoFLEX LX flow cytometer (Beckman Coulter, Miami, FL, USA). List mode data were analyzed using Kaluza Analysis 2.1 software (Beckman Coulter, Miami, FL, USA).
On the technique in general: In flow cytometry, cells or beads pass a laser one at a time.

The mark [4] stands for this setting: 100 μM, representative histogram Fig. 5A.

Molecules are shown by their SMILES.

For the molecule `OCCN1CCN(CC(O)COc2ccc(F)cc2)CC1` (centres unmarked) [Compound 4, 1-(4-(2-Hydroxyethyl)piperazin-1-yl)-3-(4-fluorophenoxy)propan-2-ol], the values for the viability at 48 h, 100 µM in series [1] and in series [2] were 99 ± 3% and 103 ± 2%, respectively.
`OCCN1CCN(CC(O)COc2cccc(Cl)c2)CC1` (centres unmarked) [Compound 6, 1-(4-(2-Hydroxyethyl)piperazin-1-yl)-3-(3-chlorophenoxy)propan-2-ol]: the viability at 48 h, 100 µM in series [1] worked out at 85 ± 7%; in series [2] it was 97 ± 1%.
Consider `O=[N+]([O-])c1cc(OCC(O)CN2CCN(CCO)CC2)ccc1Cl` (centres unmarked) [Compound 5, 1-(4-(2-Hydroxyethyl)piperazin-1-yl)-3-(4-chloro-3-nitrophenoxy)propan-2-ol], for which the viability at 48 h, 100 µM in series [1] came to 95 ± 6%; in series [2] it was 98 ± 3%.
Consider `COc1cc([N+](=O)[O-])ccc1OCC(O)CN1CCN(CCO)CC1` (centres unmarked) [Compound 1, 1-(4-(2-Hydroxyethyl)piperazin-1-yl)-3-(2-methoxy-4-nitrophenoxy)propan-2-ol], for which the viability at 48 h, 100 µM in series [1] was determined as 141 ± 42%; in series [2], 111 ± 9%.
Regarding `NCCCNCCS` [WR1065, reference compound], the viability at 48 h, 100 µM in series [1] was 20 ± 2%; in series [2] it was 3 ± 1%. Further, the viability at 2 h, 100 µM in series [3] (setting [4]) turned out to be 64%. In addition, in series [3], the viability at 24 h, 200 µM turned out to be 18%.
Turning to `O=[N+]([O-])c1ccc(OCC(O)CN2CCN(CCO)CC2)c(F)c1` (centres unmarked) [Compound 3, 1-(4-(2-Hydroxyethyl)piperazin-1-yl)-3-(2-fluoro-4-nitrophenoxy)propan-2-ol], the viability at 48 h, 100 µM in series [1] is 94 ± 9%; in series [2], 103 ± 6%.
Turning to `COc1ccc(OCC(O)CN2CCN(CCO)CC2)c([N+](=O)[O-])c1` (centres unmarked) [Compound 2, 1-(4-(2-Hydroxyethyl)piperazin-1-yl)-3-(4-methoxy-2-nitrophenoxy)propan-2-ol], the viability at 48 h, 100 µM in series [1] was 103 ± 3%; in series [2], 105 ± 1%.
For `NCCCNCCSP(=O)(O)O` [WR2721, amifostine, reference compound], the results for the viability at 48 h, 100 µM in series [1] and in series [2] were 27 ± 3% and 8 ± 4%, respectively. In series [3] (setting [4]), the viability at 24 h, 100 µM was found to be 83%. Also, the viability at 24 h, 200 µM in series [3] is 83%.

The record behind these values is PMC11324046, “Second-generation piperazine derivatives as promising radiation countermeasures” (RSC Medicinal Chemistry, 2024).
